Here are results for six molecules from patent US11254640B2, “N-substituted indoles and other heterocycles for treating brain disorders” (The Regents of the University of California, priority 2019, dated 2022).

One series has as its target T1, 5HT2A (Homo sapiens, UniProt P28223).
T1 construct: expressed in transfected cells
Description: Calcium flux assay (Calcium secondary messenger pathway). It is filed as cell-based. As to conditions: agonist mode. The essentials: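 Gq-coupled calcium mobilization in cells stably expressing 5HT2A, loaded 30–60 min at 37 °C with calcium-sensitive dye in HBSS/20 mM Hepes with 2.5 mM probenecid. Compound added 5 s into a 2-min FLIPR Tetra fluorescence read at room temperature; % activity relative to vehicle and maximal control-ligand RFU.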

For the next series, the system named is rats. As to conditions: rats trained to discriminate DOM from saline, cited from earlier work.
A further series has as its system C57BL/6J mice. Description: Head twitch response (HTR) assay. Format: in vivo, mouse. As to conditions: intraperitoneal injection, head-twitches over 20 mins (FIG. 8, FIG. 9). The text has this: Animals. For the dendritogenesis experiments, timed pregnant Sprague Dawley rats were obtained from Charles River Laboratories (Wilmington, Mass.). For the head-twitch response assay, male and female C57BL/6J mice were obtained from Jackson Laboratory (Sacramento, Calif.). Mice were housed in a temperature and humidity-controlled room maintained on a 12-h light/dark cycle in groups of 4-5 (same sex). Animals weighed between 17 and 30 g at the time of the experiments. All experimental procedures involving rodents were approved by the UC Davis Institutional Animal Care and Use Committee (IACUC) and adhered to principles described in the National Institutes of Health Guide for the Care and Use of Laboratory Animals. The University of California, Davis and the University of California, San Francisco are accredited by the Association for Assessment and Accreditation of Laboratory Animal Care International (AAALAC).
Head twitch response experiments. Mice (9-10 weeks old) were injected intraperitoneally with compound (injection volume 5 ml/kg), placed in an empty cage, and filmed for 20 minutes. Cages were cleaned with 70% ethanol between experiments.

The next series concerns cortical neurons. Nature of the series: Dendritogenesis assay, Sholl analysis. Format: cell-based, rat. As to conditions: for Emax at 10 µM: Rattus norvegicus, Cortical neurone, Nmax with vehicle (DMSO) = 0% and ketamine = 100%, read-out: % efficacy in sholls; for psychoplastogenic efficacy and potency, concentration-response (Nmax): concentrations ranging from 10 μM to 10 pM (FIG. 6). The gist of the method: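 Rat cortical neurons (timed-pregnant Sprague Dawley) were treated at DIV3 with compound at 10 μM unless noted (0.1% DMSO) for 1 h, washed out, grown 71 h more. Fixed, MAP2-immunostained, imaged; Sholl Nmax, with % efficacy scaled to DMSO (0%) and ketamine (100%).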

Entries after “also recorded” stand apart in the source; their conditions may differ. Like-named read-outs stand apart in the source and are kept apart here.

T1 sequence (P28223 whole entry): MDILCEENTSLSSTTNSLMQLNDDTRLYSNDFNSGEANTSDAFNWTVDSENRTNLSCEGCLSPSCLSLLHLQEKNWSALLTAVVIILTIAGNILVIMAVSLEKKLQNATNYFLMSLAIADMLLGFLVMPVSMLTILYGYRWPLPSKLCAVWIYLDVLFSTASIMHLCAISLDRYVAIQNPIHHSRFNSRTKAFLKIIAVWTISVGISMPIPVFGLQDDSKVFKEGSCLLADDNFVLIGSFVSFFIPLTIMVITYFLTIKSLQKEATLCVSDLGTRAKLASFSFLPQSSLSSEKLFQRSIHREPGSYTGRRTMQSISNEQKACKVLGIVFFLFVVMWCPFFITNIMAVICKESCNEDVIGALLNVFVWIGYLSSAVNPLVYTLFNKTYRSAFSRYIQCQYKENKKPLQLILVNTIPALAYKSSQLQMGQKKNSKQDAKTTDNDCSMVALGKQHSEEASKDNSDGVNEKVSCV

For `COc1ccc2ccn(CCN(C)C)c2c1` [Example 5, 2-(6-methoxy-1H-indol-1-yl)-N,N-dimethylethan-1-amine], at 5HT2A, the EC50 is below 10 µM. Besides, in the series on rats, the “substitution for hallucinogenic training drug (DOM) in drug discrimination” value (“substitution” below) was “substitutes”. The “head-twitch response (hallucinogenic potential)” value (“head-twitch response” below) in the series with C57BL/6J mice is listed as “significantly less potent”. Also, the Emax at 10 µM in the series on cortical neurons (10 μM) is 95%. In addition, the “psychoplastogenic efficacy and potency, concentration-response (Nmax)” value in the series with cortical neurons was “comparable maximum efficacies and had similar potencies as isosteric DMTs (1 and 28)”. In addition, in the series on cortical neurons (cortical neurons, 10 μM), the “dendritic arbor complexity / neuronal growth (Nmax of Sholl plots)” value was “performed identically to 28 and 29”.

Consider `COc1ccc2c(ccn2C[C@@H](C)N(C)C)c1` [Example 59, (R)-1-(5-methoxy-1H-indol-1-yl)-N,N-dimethylpropan-2-amine], for which the EC50 on 5HT2A was above 10 µM. Besides, in the series with C57BL/6J mice, the “head-twitch response” value is “did not produce any HTR”.

Molecule `COc1cccc2ccn(CCN(C)C)c12.O=C(O)/C=C/C(=O)O` [Example 6, 2-(7-methoxy-1H-indol-1-yl)-N,N-dimethylethan-1-amine] displayed a melting point of 120 to 123 °C. Moreover, the 50% effective concentration (EC50) on 5HT2A was below 10 µM. The Emax at 10 µM in the series with cortical neurons (10 μM) turned out to be 92%.

Molecule `COc1ccc2c(ccn2CCN(C)C)c1.O=C(O)/C=C/C(=O)O` [Example 4, 2-(5-methoxy-1H-indol-1-yl)-N,N-dimethylethan-1-amine] returned a melting point of 140 to 142 °C. Further, the concentration giving a half-maximal response (EC50) at 5HT2A is above 10 µM. For the same molecule, the “substitution” value in the series on rats was “low hallucinogenic potential”. Moreover, in the series with rats (listed as 5-MeO-isoDMT), the “substitution” value is “does not”. In addition, in the series on C57BL/6J mice, the “head-twitch response” value is listed as “low hallucinogenic potential; also recorded: did not produce any HTR”. For the same molecule, the Emax at 10 µM in the series on cortical neurons (10 μM) worked out at 65%. Moreover, the “psychoplastogenic efficacy and potency, concentration-response (Nmax)” value in the series on cortical neurons is “exceptional psychoplastogen”.

In the case of `C[C@H](Cn1ccc2cc(F)ccc21)N(C)C` [Example 60, (R)-1-(5-fluoro-1H-indol-1-yl)-N,N-dimethylpropan-2-amine], at 5HT2A, the EC50 is above 10 µM. The “head-twitch response” value in the series on C57BL/6J mice is given as “did not produce any HTR”.

The molecule `COc1cccc2c1ccn2CCN(C)C.O=C(O)/C=C/C(=O)O` [Example 3, 2-(4-methoxy-1H-indol-1-yl)-N,N-dimethylethan-1-amine] gave a melting point of 140 to 145 °C. For the same molecule, the half-maximal effective concentration (EC50) on 5HT2A is above 10 µM. In the series with cortical neurons (10 μM), the Emax at 10 µM was 26%.
